Measurements from patent publication US20250057864A1, “COMPOSITION FOR IMPROVING EXERCISE PERFORMANCE COMPRISING GYPENOSIDE COMPOUND AS ACTIVE INGREDIENT” (BTC CORPORATION, priority 2022, published 2025).

Tests used:
[1] = test system: ICR mice; assay: Blood biochemistry (serum analysis) at end of test; format: in vivo
Method: After an acclimatization period of 1 week, healthy animals were selected and divided into 6 groups according to the randomized block design. […] Each test group consisted of 10 animals.
Before sacrificing, the experimental animal was anesthetized using an anesthetic prepared by dilution of tribromoethanol with tertiary amyl alcohol and blood was taken from the eye socket. The blood was placed in a serum-separating tube (Becton Dickinson) and left at room temperature for 30 minutes, centrifuged at 5,000 rpm for 10 minutes to separate the serum, and kept at −70° C. until analysis.
The contents of glucose, triglycerides (TG), total cholesterol (CHOL), LDL-cholesterol (LDL-CHOL), HDL-cholesterol (HDL-CHOL), blood urea nitrogen (BUN) and creatinine (CREA) in the serum, and the activities of creatine kinase (CK), lactate dehydrogenase (LDH), alanine aminotransferase (ALT), aspartate aminotransferase (AST) and alkaline phosphatase (ALP) were measured using a blood biochemistry analyzer (KoneLab 20 XT, Thermo Fisher Scientific).

[2] = test system: p-AMPK, p-Sirt1, p-p38, p-Nrf2 in C2C12 cells; assay: Western blot of proteins related with PGC-1α activation in C2C12 cells; format: cell-based, mice; details: C2C12, 0.36 μg/mL (Cr 5 μg/mL); for Protein expression level p-AMPK / Protein expression level p-Nrf2 / Protein expression level p-Sirt1 / Protein expression level p-p38: 7 days; for p-AMPK/AMPK ratio / p-Nrf2/Nrf2 ratio / p-Sirt1/Sirt1 ratio / p-p38/p38 ratio: control G1 = 1.00
Method: (§1) C2C12 cells were dispensed into a 6-well plate at 2×10^5 cells/well and stabilized for 24 hours. In order to investigate the effect of each test substance on muscle cell differentiation, each test substance was added to the myocyte differentiation medium. The cells were cultured for 4 days (mRNA analysis) or 7 days (protein analysis) after exchanging the cell culture medium with the myocyte differentiation medium treated with each test substance, as shown in Table 2.
C2C12 cells were dispensed into a 6-well plate at 2×10^5 cells/well and stabilized for 24 hours. The cells were cultured for 7 days after exchanging the culture medium with a myocyte differentiation medium containing the test substance. After the induction of differentiation for 7 days, the cells were homogenized by adding a lysis buffer (20 mmol/L HEPES, pH 7.5, 150 mmol/L NaCl, 1% Triton X-100, 1 mmol/L EDTA, 1 mmol/L EGTA, 100 mmol/L NaF, 10 mmol/L sodium pyrophosphate, 1 mmol/L Na3VO4, 20 μg/mL aprotinin, 10 μg/mL antipain, 10 μg/mL leupeptin, 80 μg/mL benzamidine HCl, 0.2 mmol/L PMSF) and a total cell lysate was obtained through centrifugation. The protein quantity of the total cell lysate was measured using a BCA protein assay kit (Thermo Scientific). The total cell lysate (50 μg) was separated by 10% sodium dodecyl sulfate polyacrylamide gel electrophoresis (SDS-PAGE) and then transferred to a polyvinylidene difluoride membrane (Milipore). The membrane was blocked for 1 hour in 5% skim milk-TBST (20 mmol/L Tris·HCl, pH 7.5, 150 mmol/L NaCl, 0.1% Tween 20) and then incubated for 16 hours at 4° C. or for 1 hour at room temperature after adding antibodies. Thereafter, horseradish peroxidase (HRP)-linked anti-rabbit IgG or HRP-linked anti-mouse IgG was added and the mixture was stirred for 1 hour. The detected protein bands were visualized by enhanced chemiluminescence using a Luminata™ Forte Western HRP substrate (Millipore). The level of protein expression was quantified using the ImageQuant™ LAS 500 imaging system (GE Healthcare Bio-Sciences AB).
The result of western blot analysis conducted using the total cell lysate obtained by treating with the test substance to investigate the effect of the test substance on the changes in proteins associated with PGC-1α activation is shown in Table 6.
Based on the western blot analysis result, the activity of each protein was evaluated from the ratio of activation.

[3] = test system: MHC1, MHC7, MHC2A, MHC2B, PGC-1α, PKB, FNDC5 in C2C12 cells; assay: mRNA expression of genes related with muscular strength type in C2C12 cells; format: cell-based, mice; details: C2C12, 0.36 μg/mL (Cr 5 μg/mL), control G1 = 1.00
Method: as §1
(§2) C2C12 cells were dispensed into a 6-well plate at 2×10^5 cells/well and stabilized for 24 hours. The cells were cultured for 2 or 4 days after replacing the cell culture with a myocyte differentiation medium containing the test substance. After collecting the cells, total RNA was isolated using an RNeasy Plus Mini kit (QIAGEN), and quantified using a micro-volume spectrophotometer (BioSpec-nano, Shimadzu). RNAs with an OD260/280 value greater than 1.8 were used for experiment.
(§3) After obtaining cDNA from the total RNA (2 μg) using a HyperScript™ RT master mix kit (GeneAll Biotechnology), real-time PCR was performed using a Rotor-Gene 300 PCR kit (Corbett Research) and a Rotor-Gene™ SYBR Green kit (QIAGEN). Quantitative analysis of the gene expression was performed using the Rotor-Gene 6000 Series System Software program (Corbett Research).
The effect of the compositions according to Examples 1 to 4 on the mRNA expression of MHC1, MHC7, MHC2A and MHC2B, which are responsible for muscular strength type, was investigated.
The result of investigating the effect of the compositions according to Examples 1 to 4 on the mRNA expression of PGC-1α, PKB and FNDC5 on the muscular strength type is shown in Table 10.

[4] = test system: GSY, SIRT1, PPARγ in C2C12 cells; assay: mRNA expression of genes related with energy in C2C12 cells; format: cell-based, mice; details: C2C12, 0.36 μg/mL (Cr 5 μg/mL), control G1 = 1.00
Method: as §1, §2, §3
The result of investigating the effect of the compositions according to Examples 1 to 4 on the mRNA expression of GSY, SIRT1 and PPARγ involved in the energy metabolism of muscle cells is shown in Table 11.

[5] = test system: gastrocnemius muscle (GA); assay: Glycogen content in muscle (gastrocnemius muscle, GA); format: in vivo, ICR mice; details: 6 weeks
Method: After an acclimatization period of 1 week, healthy animals were selected and divided into 6 groups according to the randomized block design. The animals were divided into (G1) a non-exercise control group, (G2) a non-exercise+7 mg/kg body weight (BW) Example 1 group, (G3) a non-exercise+7 mg/kg BW Example 2 group, (G4) a non-exercise+7 mg/kg BW Example 3 group, (G5) a non-exercise+7 mg/kg BW Example 4 group, (G6) an exercise control group, (G7) an exercise+7 mg/kg BW Example 1 group, (G8) an exercise+7 mg/kg BW Example 2 group, (G9) an exercise+7 mg/kg BW Example 3 group, (G10) an exercise+7 mg/kg BW Example 4 group, and (G11) an exercise+75 mg/kg BW Cr dose group. Each test group consisted of 10 animals.
A muscle tissue fluid was prepared to measure glycogen content and enzymatic activity in the muscle tissue. 1 mL of PBS was added to the extracted quadriceps femoris muscle (QF), gastrocnemius muscle (GA), soleus muscle (SOL) and extensor digitorum longus muscle (EDL), and the skeletal muscles were homogenized with a homogenizer. The homogenized solution was centrifuged at 5,000 rpm for 10 minutes and then used as a muscle tissue fluid. The amount of proteins in the muscle tissue was measured using a BCA protein assay kit (Thermo Scientific).
The glycogen content in the liver and skeletal muscle (GA) was measured using a glycogen assay kit according to the method presented by the manufacturer (Abcam).
Accordingly, the glycogen content in the muscle (GA) collected at the end of the test was measured.

[6] = serum, treadmill exercise, 7 mg/kg BW (Cr 75 mg/kg BW), 6 weeks
[7] = treadmill exercise, 7 mg/kg BW (Cr 75 mg/kg BW)
[8] = serum, non-exercise, 7 mg/kg BW, 6 weeks

CN(CC(=O)O)C(=N)N.O [Cr, Creatine monohydrate, reference compound]
BUN [1, 6]: 7.84 ± 0.47 mg/dL | CK [1, 6]: 521.5 U/L | CREA [1, 6]: 0.363 mg/dL | LDH [1, 6]: 1,169 U/L | Lactate [1, 6]: 5.30 ± 0.41^++ μmol/L | Protein expression level p-AMPK [2]: 104.6 ± 14.4 % of control group | Protein expression level p-Nrf2 [2]: 116.2 ± 11.4 % of control group | Protein expression level p-Sirt1 [2]: 114.0 ± 11.1 % of control group | Protein expression level p-p38 [2]: 151.5 ± 41.0 % of control group | p-AMPK/AMPK ratio [2]: 1.09 ± 0.13 | p-Nrf2/Nrf2 ratio [2]: 1.20 ± 0.26 | p-Sirt1/Sirt1 ratio [2]: 1.11 ± 0.10 | p-p38/p38 ratio [2]: 1.15 ± 0.29 | mRNA expression FNDC5 [3]: 1.83 ± 0.47 | mRNA expression MHC1 [3]: 4.50 ± 1.43 | mRNA expression MHC2A [3]: 1.74 ± 0.22 | mRNA expression MHC2B [3]: 1.10 ± 0.10 | mRNA expression MHC7 [3]: 7.87 ± 2.66 | mRNA expression PGC-1α [3]: 1.54 ± 1.10 | mRNA expression PKB [3]: 2.18 ± 0.51 | mRNA expression PPARγ [4]: 2.93 ± 1.32 | mRNA expression Sirt1 [4]: 1.13 ± 0.18 | Glycogen content in 1 mg of GA [5, 7]: 3.32 ± 0.21^+ μg/mg GA | Total glycogen content in GA [5, 7]: 1350.5 ± 73.7^+ μg/GA

CC(C)=CCC[C@](C)(O)C1CC[C@]2(C)C1[C@H](O)CC1[C@@]3(C)C[C@@H](O)C(OC4OC(CO)C(O)C(O)C4OC4OC(CO)C(O)C(O)C4O)C(C)(C)C3CC[C@]12C (stereo partly shown) [Example 1, Gypenoside L]
BUN ([1]; 7 mg/kg, 1008 h): 7.10 ± 0.40 mg/dL | CK ([1]; 7 mg/kg, 1008 h): 471.7 U/L | LDH ([1]; 7 mg/kg, 1008 h): 1,198 U/L | BUN [1, 8]: 7.54 ± 0.47 mg/dL | CK [1, 8]: 416.7 U/L | CREA [1, 8]: 0.312 mg/dL | LDH [1, 8]: 894 U/L | Lactate [1, 8]: 5.15 ± 0.30 µmol/L | CREA [1, 6]: 0.348 mg/dL | Protein expression level p-AMPK [2]: 117.7 ± 7.2 % of control group | Protein expression level p-Nrf2 [2]: 135.1 ± 1.6 % of control group | Protein expression level p-Sirt1 [2]: 143.4 ± 5.6 % of control group | Protein expression level p-p38 [2]: 133.1 ± 7.1 % of control group | p-AMPK/AMPK ratio [2]: 1.27 ± 0.25 | p-Nrf2/Nrf2 ratio [2]: 1.50 ± 0.11 | p-Sirt1/Sirt1 ratio [2]: 1.38 ± 0.06 | p-p38/p38 ratio [2]: 1.27 ± 0.07 | mRNA expression FNDC5 [3]: 2.97 ± 0.39 | mRNA expression MHC1 [3]: 10.30 ± 1.75 | mRNA expression MHC2A [3]: 1.54 ± 0.32 | mRNA expression MHC2B [3]: 1.20 ± 0.12 | mRNA expression MHC7 [3]: 1.80 ± 0.41 | mRNA expression PGC-1α [3]: 11.75 ± 3.82 | mRNA expression PKB [3]: 3.04 ± 0.46 | mRNA expression GSY [4]: 2.71 ± 0.32 | mRNA expression PPARγ [4]: 1.16 ± 0.47 | mRNA expression Sirt1 [4]: 1.40 ± 0.22 | Glycogen content in 1 mg of GA ([5]; non-exercise, 7 mg/kg BW): 3.56 ± 0.15 μg/mg GA | Total glycogen content in GA ([5]; non-exercise, 7 mg/kg BW): 1442.1 ± 76.2 μg/GA | Glycogen content in 1 mg of GA [5, 7]: 3.38 ± 0.12^+ μg/mg GA | Total glycogen content in GA [5, 7]: 1404.4 ± 83.3^+ μg/GA
